biological target: BTK (Homo sapiens (Human), UniProt Q06187); assay: Inhibition of B-cell activation measured by CD69 expression in primary CD19+ cells; type: cell-based; settings: primary CD19+ cells stimulated with anti-human IgD, CD69 expression by flow cytometry
Experimental: Cells were collected and plated in a 96 flat bottom plate at a concentration of 2×10^5/well in RPMI media containing 10% FBS, rested for 1 hour at 37° c. Cells were treated with inhibitor in duplicates or vehicle control in 1% DMSO final concentration for 1 hour at 37° c., 5% CO2. […] B cells were analyzed by flow cytometry using a BD LSRII or BD FACsCanto Flow Cytometer. Viable cells were gated, and CD69 percentage was determined using FlowJo software.

BTK, sequence (Q06187 whole entry): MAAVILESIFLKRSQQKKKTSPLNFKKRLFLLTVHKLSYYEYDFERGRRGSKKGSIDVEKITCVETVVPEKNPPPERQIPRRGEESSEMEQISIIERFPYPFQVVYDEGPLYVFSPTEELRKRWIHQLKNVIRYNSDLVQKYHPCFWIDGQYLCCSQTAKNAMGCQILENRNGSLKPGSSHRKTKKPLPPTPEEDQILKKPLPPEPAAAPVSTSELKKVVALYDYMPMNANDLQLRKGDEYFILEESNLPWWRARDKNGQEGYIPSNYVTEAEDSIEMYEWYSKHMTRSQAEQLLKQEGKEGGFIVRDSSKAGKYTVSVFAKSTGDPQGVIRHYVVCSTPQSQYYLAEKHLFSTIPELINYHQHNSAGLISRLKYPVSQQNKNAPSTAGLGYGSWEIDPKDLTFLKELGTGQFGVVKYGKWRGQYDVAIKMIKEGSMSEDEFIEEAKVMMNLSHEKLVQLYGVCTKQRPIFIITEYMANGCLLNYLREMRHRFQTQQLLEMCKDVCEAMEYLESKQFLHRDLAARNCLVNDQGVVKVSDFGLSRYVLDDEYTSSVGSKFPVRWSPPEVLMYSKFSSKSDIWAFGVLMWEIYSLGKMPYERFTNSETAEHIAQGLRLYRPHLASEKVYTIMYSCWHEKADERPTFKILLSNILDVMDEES

| IC50 [nM] | SMILES |
| --- | --- |
| 9 | C=CC(=O)N1CC2(CC(n3cc(C(N)=O)c(-c4ccc(Oc5ccccc5)cc4)n3)C2)C1 [Example 28] |

biological target: full-length human His-tagged BTK (Homo sapiens (Human), UniProt Q06187); assay: BTK Assay (HTRF, Cisbio KinEASE-TK); type: biochemical; settings: 6 nM BTK, 30 uM ATP, 15 min preincubation
Sequence (Q06187 whole entry): as above
Experimental: An HTRF assay (Cisbio KinEASE-TK cat #62TKOPEC) was performed to quantitate the ability of test compounds to inhibit BTK mediated phosphorylation of substrate. Assays were assembled in 384 well plates where 6 nM of full-length human His-tagged BTK (Life Technologies cat # PV3587) and test compound at varying concentrations were preincubated for 15 minutes at 28° C. Then, 1 uM of TK substrate-biotin and 30 uM ATP were added and incubated for an additional 30 minutes at 28° C.

| IC50 [nM] | SMILES |
| --- | --- |
| 3.5 | C=CC(=O)N1CC2(CC(n3cc(C(N)=O)c(-c4ccc(Oc5ccccc5)cc4)n3)C2)C1 [Example 28] |
| 0.89 | CC#CC(=O)N1CC[C@]2(C1)C[C@@H](n1nc(-c3ccc(Oc4ccccc4)cc3)c(C(N)=O)c1N)C2 [Example 92] |
| 33 | NC(=O)c1cn([C@@H]2CCCN(C(=O)C#CCN3CCOCC3)C2)nc1-c1ccc(Oc2ccccc2)cc1 [Example 93] |
| 8200 | C=CC(=O)N1CCC[C@@H](n2cc(C(N)=O)c(-c3ccc(C(=O)N4CCCCC4)cc3)n2)C1 [Example 94] |
| 1600 | C=CC(=O)N1CCC[C@@H](n2cc(C(N)=O)c(-c3ccc(OCCOC)cc3)n2)C1 [Example 95] |
| 4.8 | C=CC(=O)N1CCC[C@@H](n2cc(C(N)=O)c(-c3ccc(Oc4ccccc4F)cc3)n2)C1 [Example 96] |
| 0.8 | C=CC(=O)NC1CC2(C1)CC(n1nc(-c3ccc(Oc4ccccc4)cc3)c(C(N)=O)c1N)C2 (stereo not shown) [Example 97] |
| 0.7 | CN(C)C/C=C/C(=O)N1CC[C@]2(C1)C[C@@H](n1nc(-c3ccc(Oc4ccccc4)cc3)c(C(N)=O)c1N)C2 [Example 98] |
| 3.2 | NC(=O)c1c(-c2ccc(Oc3ccccc3)cc2)nn([C@H]2C[C@]3(CCN(C(=O)/C=C/CN4CCOCC4)C3)C2)c1N [Example 99] |
| 0.8 | CN(C)C/C=C/C(=O)N1CC2(CC(n3nc(-c4ccc(Oc5ccccc5)cc4)c(C(N)=O)c3N)C2)C1 [Example 100] |
| 9.2 | C=CC(=O)N1CC2(CC(n3nc(-c4ccc(Oc5ccccc5)nc4)c(C(N)=O)c3N)C2)C1 [Example 101] |
| 2.7 | CC#CC(=O)N1CC2(CC(n3nc(-c4ccc(Oc5ccccc5)nc4)c(C(N)=O)c3N)C2)C1 [Example 102] |
| 2.8 | C=CC(=O)N1CC2(CC(n3nc(-c4ccc(Oc5ccccc5)cn4)c(C(N)=O)c3N)C2)C1 [Example 103] |
| 19 | C=CC(=O)N1CC2(CC(n3nc(-c4ccc(OCC5CC5)cc4)c(C(N)=O)c3N)C2)C1 [Example 104] |
| 13 | C=CC(=O)N1CC2(CC(n3nc(-c4ccc(OC(C)C)cc4)c(C(N)=O)c3N)C2)C1 [Example 105] |
| 14 | CC#CC(=O)N1CC2(CC(n3nc(-c4ccc(OC(F)(F)F)cc4)c(C(N)=O)c3N)C2)C1 [Example 108] |
| 24 | C=CC(=O)N1CC2(CC(n3nc(-c4ccc(OC(F)(F)F)cc4)c(C(N)=O)c3N)C2)C1 [Example 109] |
| 0.87 | CC#CC(=O)N1CC2(CC(n3nc(-c4ccc(Oc5ccccc5)cn4)c(C(N)=O)c3N)C2)C1 [Example 110] |
| 16 | C=CC(=O)N1CC2(CC(n3nc(-c4ccc(OCCC)cc4)c(C(N)=O)c3N)C2)C1 [Example 111] |
| 3.4 | C=CC(=O)N1CC[C@]2(C1)C[C@@H](n1nc(-c3ccc(Oc4ccccc4)nc3)c(C(N)=O)c1N)C2 [Example 114] |
| 12 | C=CC(=O)N1CC2(CC(n3nc(-c4ccc(OCC(F)(F)F)cc4)c(C(N)=O)c3N)C2)C1 [Example 116] |

| IC50 [nM] | SMILES |
| --- | --- |
| 1.1 | C=CC(=O)N1CC[C@]2(C1)C[C@@H](n1nc(-c3ccc(Oc4ccccc4)cn3)c(C(N)=O)c1N)C2 [Example 117] |
| 0.5 | CC#CC(=O)N1CC[C@]2(C1)C[C@@H](n1nc(-c3ccc(Oc4ccccc4)cn3)c(C(N)=O)c1N)C2 [Example 118] |
| 11 | CC#CC(=O)N1CC[C@]2(C1)C[C@@H](n1nc(-c3ccc(Oc4ccccc4)cn3)c(C(N)=O)c1N)C2 [Example 119] |
| 3.5 | C=CC(=O)N1CC[C@]2(C1)C[C@@H](n1nc(-c3ccc(Oc4ccccc4)cn3)c(C(N)=O)c1N)C2 [Example 120] |
| 17 | CC#CC(=O)N1CC[C@]2(C1)C[C@@H](n1nc(-c3ccc(Oc4ccccc4)nc3)c(C(N)=O)c1N)C2 [Example 122] |
| 9.1 | C=CC(=O)N1CC[C@]2(C1)C[C@@H](n1nc(-c3ccc(Oc4ccccc4)nc3)c(C(N)=O)c1N)C2 [Example 123] |
| 10 | C=CC(=O)N1CC2(CC(n3nc(-c4ccc(OC(C)C)c(Cl)c4)c(C(N)=O)c3N)C2)C1 [Example 124] |
| 28 | C=CC(=O)N1CC[C@]2(C1)C[C@@H](n1nc(-c3ccc(OCCC)cc3)c(C(N)=O)c1N)C2 [Example 126] |
| 15 | CC#CC(=O)N1CC[C@]2(C1)C[C@@H](n1nc(-c3ccc(OCCC)cc3)c(C(N)=O)c1N)C2 [Example 127] |
| 0.9 | CC#CC(=O)N1CC[C@]2(C1)C[C@H](n1nc(-c3ccc(C(F)(F)F)cc3)c(C(N)=O)c1N)C2 [Example 128] |
| 29 | CC#CC(=O)N1CC[C@]2(C1)C[C@@H](n1nc(-c3ccc(C(F)(F)F)cc3)c(C(N)=O)c1N)C2 [Example 129] |
| 6.4 | C=CC(=O)N1CC[C@]2(C1)C[C@H](n1nc(-c3ccc(C(F)(F)F)cc3)c(C(N)=O)c1N)C2 [Example 130] |
| 28 | C=CC(=O)N1CC[C@]2(C1)C[C@@H](n1nc(-c3ccc(C(F)(F)F)cc3)c(C(N)=O)c1N)C2 [Example 131] |
| 8.4 | C=CC(=O)N1CC2(CC(n3nc(-c4ccc(O)cc4)c(C(N)=O)c3N)C2)C1 [Example 133] |
| 120 | C=CC(=O)N1CC2(CC(n3nc(-c4ccc(OC5CCOC5)cc4)c(C(N)=O)c3N)C2)C1 (stereo not shown) [Example 134] |
| 26 | C=CC(=O)N1CC2(CC(n3nc(-c4ccc(Cl)c(C(F)(F)F)c4)c(C(N)=O)c3N)C2)C1 [Example 135] |
| 14 | CC#CC(=O)N1CC2(CC(n3nc(-c4ccc(Cl)c(C(F)(F)F)c4)c(C(N)=O)c3N)C2)C1 [Example 136] |
| 1.6 | CC#CC(=O)N1CC[C@]2(C1)C[C@H](n1nc(-c3ccc(F)c(OCC(F)(F)F)c3)c(C(N)=O)c1N)C2 [Example 137] |
| 2.2 | CC#CC(=O)N1CC2(CC(n3nc(-c4ccc(OCCC)c(F)c4)c(C(N)=O)c3N)C2)C1 [Example 138] |
| 16 | C=CC(=O)N1CC2(CC(n3nc(-c4ccc(OCCC)c(F)c4)c(C(N)=O)c3N)C2)C1 [Example 139] |
| 0.9 | CC#CC(=O)N1CC[C@]2(C1)C[C@H](n1nc(-c3ccc(OCCC)cc3)c(C(N)=O)c1N)C2 [Example 140] |

| IC50 [nM] | SMILES |
| --- | --- |
| 14 | CC#CC(=O)N1CC2(CC(n3nc(-c4ccc(C(F)(F)F)c(F)c4)c(C(N)=O)c3N)C2)C1 [Example 141] |
| 29 | C=CC(=O)N1CC2(CC(n3nc(-c4ccc(C(F)(F)F)c(F)c4)c(C(N)=O)c3N)C2)C1 [Example 142] |
| 37 | CC#CC(=O)N1CC2(CC(n3nc(-c4ccc(F)c(C(F)(F)F)c4)c(C(N)=O)c3N)C2)C1 [Example 143] |
| 72 | C=CC(=O)N1CC2(CC(n3nc(-c4ccc(F)c(C(F)(F)F)c4)c(C(N)=O)c3N)C2)C1 [Example 144] |
| 22 | C=CC(=O)N1CC[C@]2(C1)C[C@H](n1nc(-c3ccc(F)c(OCC(F)(F)F)c3)c(C(N)=O)c1N)C2 [Example 146] |
| 9.2 | CC#CC(=O)N1CC2(CC(n3nc(-c4ccc(C(F)(F)F)cc4)c(C(N)=O)c3N)C2)C1 [Example 147] |
| 3 | CC#CC(=O)N1CC2(CC(n3nc(-c4ccc(OCCC)c(Cl)c4)c(C(N)=O)c3N)C2)C1 [Example 148] |
| 100 | CC#CC(=O)N1CC2(CC(n3nc(-c4ccc(F)c(OCC(F)(F)F)c4)c(C(N)=O)c3N)C2)C1 [Example 149] |
| 0.8 | CC#CC(=O)N1CC[C@]2(C1)C[C@H](n1nc(-c3ccc(Oc4ccccc4)nc3)c(C(N)=O)c1N)C2 [Example 150] |
| 0.7 | CC#CC(=O)N1CC[C@]2(C1)C[C@H](n1nc(-c3ccc(Oc4ccccn4)cc3)c(C(N)=O)c1N)C2 [Example 151] |
| 1.5 | C=CC(=O)N1CC[C@]2(C1)C[C@H](n1nc(-c3ccc(Oc4ccccn4)cc3)c(C(N)=O)c1N)C2 [Example 152] |
| 2.3 | C=CC(=O)N1CC[C@]2(C1)C[C@H](n1nc(-c3ccc(OC)cc3)c(C(N)=O)c1N)C2 [Example 153] |
| 0.6 | CC#CC(=O)N1CC[C@]2(C1)C[C@H](n1nc(-c3ccc(OC)cc3)c(C(N)=O)c1N)C2 [Example 154] |
| 7.3 | C=CC(=O)N1CC[C@]2(C1)C[C@H](n1nc(-c3cccc(OC)c3)c(C(N)=O)c1N)C2 [Example 155] |
| 16 | C=CC(=O)N1CC[C@]2(C1)C[C@H](n1nc(-c3ccc(OC4CC4)cc3)c(C(N)=O)c1N)C2 [Example 156] |
| 2 | CC#CC(=O)N1CC[C@]2(C1)C[C@H](n1nc(-c3ccc(OC4CC4)cc3)c(C(N)=O)c1N)C2 [Example 157] |
| 9.2 | C=CC(=O)N1CC[C@]2(C1)C[C@H](n1nc(-c3ccc(OC(F)(F)F)cc3)c(C(N)=O)c1N)C2 [Example 162] |
| 0.9 | CC#CC(=O)N1CC[C@]2(C1)C[C@H](n1nc(-c3ccc(OCC)cc3)c(C(N)=O)c1N)C2 [Example 167] |
| 1.2 | CC#CC(=O)N1CC[C@]2(C1)C[C@H](n1nc(-c3ccc(OC(C)C)cc3)c(C(N)=O)c1N)C2 [Example 168] |

biological target: EGFR (Homo sapiens (Human), UniProt P00533); assay: Inhibition of EGFR autophosphorylation in A431 human epithelial cells stimulated with EGF; type: cell-based; settings: EGF 60 ng/mL, phospho EGFR, read-out: A431 p-EGFR IC50
Excerpt: The compounds described herein show a range of selectivities against EGFR as measured in cellular assays (BTK activity measured by CD69 expression in primary CD19^+ cells; EGFR activity measured by EGFR phosphorylation in A431 cells).
Inhibition of EGFR Autophosphorylation in A431 Human Epithelial Cells Stimulated with Epithelial Growth Factor
A431 cells (ATCC # CRL-1555 FZ) are thawed and plated in DMEM containing 10% FBS in a 384-well tissue culture treated plate at 15,000 cells/well. After incubating for 24 hours at 37° C., 5% CO2, the cells are treated with test compound (1% DMSO final concentration) and incubated for 16 hours at 37° C., 5% CO2. EGF (Millipore, 01-107) is added at a final concentration of 60 ng/mL and incubated for 10 minutes. The medium is removed, the cells are lysed, and phospho EGFR is measured (Meso Scale Diagnostics, N31CB-1).

EGFR, sequence (P00533 25-1210): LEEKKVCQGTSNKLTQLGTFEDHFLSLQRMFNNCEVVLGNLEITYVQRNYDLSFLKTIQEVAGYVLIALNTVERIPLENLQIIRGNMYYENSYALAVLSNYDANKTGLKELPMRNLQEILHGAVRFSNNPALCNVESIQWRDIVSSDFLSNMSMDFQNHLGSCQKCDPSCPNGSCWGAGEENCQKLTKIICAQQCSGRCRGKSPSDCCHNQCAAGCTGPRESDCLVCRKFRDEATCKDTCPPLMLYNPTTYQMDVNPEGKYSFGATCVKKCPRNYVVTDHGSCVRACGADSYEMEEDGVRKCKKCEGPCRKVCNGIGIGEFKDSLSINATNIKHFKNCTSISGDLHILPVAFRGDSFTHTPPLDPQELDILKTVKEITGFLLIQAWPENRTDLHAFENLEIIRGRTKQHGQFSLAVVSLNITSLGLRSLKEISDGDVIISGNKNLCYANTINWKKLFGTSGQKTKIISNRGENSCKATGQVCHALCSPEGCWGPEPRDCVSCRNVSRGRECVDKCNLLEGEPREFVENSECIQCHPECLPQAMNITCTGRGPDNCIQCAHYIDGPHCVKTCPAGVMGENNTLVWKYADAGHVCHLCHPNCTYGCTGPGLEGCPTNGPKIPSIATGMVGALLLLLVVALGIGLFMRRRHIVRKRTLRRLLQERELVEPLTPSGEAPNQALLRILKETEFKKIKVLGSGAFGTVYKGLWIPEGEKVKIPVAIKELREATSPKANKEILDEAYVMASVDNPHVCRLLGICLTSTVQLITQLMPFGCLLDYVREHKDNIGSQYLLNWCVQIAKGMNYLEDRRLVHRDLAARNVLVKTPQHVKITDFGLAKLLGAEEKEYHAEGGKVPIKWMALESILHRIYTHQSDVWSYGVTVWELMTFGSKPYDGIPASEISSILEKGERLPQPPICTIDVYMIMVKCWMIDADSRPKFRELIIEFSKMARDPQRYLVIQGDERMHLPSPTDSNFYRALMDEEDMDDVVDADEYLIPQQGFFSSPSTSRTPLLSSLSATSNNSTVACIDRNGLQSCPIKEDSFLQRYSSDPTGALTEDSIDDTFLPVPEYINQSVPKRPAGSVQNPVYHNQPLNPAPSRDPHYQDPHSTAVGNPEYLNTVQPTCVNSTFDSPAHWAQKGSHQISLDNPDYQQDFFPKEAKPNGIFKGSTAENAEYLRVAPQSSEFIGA

| IC50 [nM] | SMILES |
| --- | --- |
| 4700 | C=CC(=O)N1CC2(CC(n3cc(C(N)=O)c(-c4ccc(Oc5ccccc5)cc4)n3)C2)C1 [Example 28] |
| 6.6 | C=CC(=O)N1CCC[C@@H](n2nc(-c3ccc(Oc4ccccc4)cc3)c(C(N)=O)c2N)C1 [Example 54] |

— patent US10138229B2, “Heteroaromatic compounds as BTK inhibitors” (Boehringer Ingelheim International GmbH, priority 2012, dated 2018)
